What was measured:
[1] = tested on: Enterobacteriaceae strains; assay: FCM analysis of Ceftazidime-treated strains (DiBAC4(3) marker), fluorescence distribution; assay type: cell-based; settings: 128 strains, 1, 2, 4 and 8 mg/L Ceftazidime; inferred from low performance of quantile models
Procedure: In a next step 22, liquid samples with different concentrations {C1, . . . , Cm} of the antibiotic are prepared for each of the selected strains Si, where C1=0 (no antibiotic) and m>2 is the number of non-null concentrations of antibiotic. Said concentrations are stored in the computer unit 14. […] After 2 h growth at 35° C. with shaking at 180 rpm, the resulting exponential phase bacterial culture is normalized at 0.5 McF and used to inoculate wells of a microtiterplate supplemented with antibiotics at the different concentrations {C1, . . . , Cm}. After 1 h of incubation at 35° C., a membrane depolarization fluorescent marker, for example (Bis-(1,3-Dibutylbarbituric Acid)Trimethine Oxonol), also known as “DiBAC4(3)”, is added to the wells at a final concentration of 0.5 μg/ml. An additional 15 min incubation with the marker is at 35° C. is then carried out. […]
In the step 24, a FCM acquisition is performed for each sample by means of the flow-cytometer 12 and the corresponding FSC, SSC and fluorescence distributions stored in the computer unit 14. For each strain Si, and for each concentration C1, a FSC distribution “FSCi,j”, a SSC distribution “SSCi,j” and a fluorescence distribution “FIi,j” are thus stored in the computer unit 14, e.g. in the form of digital vectors. […]

[2] = tested on: Enterobacteriaceae strains; assay: FCM fluorescence distribution profiles of Gentamicin-treated strains (DiBAC4(3) membrane depolarization marker); assay type: cell-based
Procedure: In a next step 22, liquid samples with different concentrations {C1, . . . , Cm} of the antibiotic are prepared for each of the selected strains Si, where C1=0 (no antibiotic) and m>2 is the number of non-null concentrations of antibiotic. Said concentrations are stored in the computer unit 14. […] After 2 h growth at 35° C. with shaking at 180 rpm, the resulting exponential phase bacterial culture is normalized at 0.5 McF and used to inoculate wells of a microtiterplate supplemented with antibiotics at the different concentrations {C1, . . . , Cm}. After 1 h of incubation at 35° C., a membrane depolarization fluorescent marker, for example (Bis-(1,3-Dibutylbarbituric Acid)Trimethine Oxonol), also known as “DiBAC4(3)”, is added to the wells at a final concentration of 0.5 μg/ml. An additional 15 min incubation with the marker is at 35° C. is then carried out. The concentrations {C1, . . . , Cm} are chosen such that the range [BPS, BPR] is included or equal to the range [C2, Cm] of non-null concentrations.
In the step 24, a FCM acquisition is performed for each sample by means of the flow-cytometer 12 and the corresponding FSC, SSC and fluorescence distributions stored in the computer unit 14. For each strain Si, and for each concentration C1, a FSC distribution “FSCi,j”, a SSC distribution “SSCi,j” and a fluorescence distribution “FIi,j” are thus stored in the computer unit 14, e.g. in the form of digital vectors.
The experiment was performed as described in the following lines: • A panel of 107 Enterobacteriaceae strains (FIG. 6: Distribution of the panel of strains according to their MICs for Gentamicin) were treated with 0, 2, 4 and 8 mg/L of Gentamicin following the protocol described in FIG. 3 and analyzed by FCM.

| Compound | fluorescence distribution of treated strains [1] | fluorescence distribution profile vs untreated samples ([2]; intermediate phenotype strains, 2 mg/L Gentamicin) | fluorescence distribution profile vs untreated samples ([2]; intermediate phenotype strains, 4 and 8 mg/L Gentamicin) | resistant strains that did not show any shift in fluorescence (profile A) ([2]; resistant phenotype strains, all concentrations tested (2, 4, 8 mg/L)) | fluorescence distribution profile vs untreated samples ([2]; susceptible phenotype strains, 2 mg/L Gentamicin, panel of 107 strains, approximately evaluated) | fluorescence distribution profile vs untreated samples ([2]; susceptible phenotype strains, 4 and 8 mg/L Gentamicin, panel of 107 strains, approximately evaluated) |
| --- | --- | --- | --- | --- | --- | --- |
| CC(C)(O/N=C(\C(=O)N[C@@H]1C(=O)N2C(C(=O)[O-])=C(C[n+]3ccccc3)CS[C@H]12)c1csc(N)n1)C(=O)O [Ceftazidime] | the majority of strains treated with Ceftazidime exhibit homogeneous distributions of fluorescence |  |  |  |  |  |
| Gentamicin |  | more strains showed no shift of fluorescence (profile A) | equal number of strains exhibited either no shift (profile A) or heterogeneous fluorescence distribution (profile B) | 36 out of 37 | equal number of strains exhibited either no shift (profile A) or heterogeneous fluorescence distributions (profile B) | the majority of strains exhibited an heterogeneous fluorescence distribution (profile B) |

From patent publication US11649476B2, “Flow cytometry data processing for antimicrobial agent sensibility prediction” (priority 2016, dated 2023)
